In patent US9938249B2, “Anti-amyloid compounds containing benzofurazan” (Treventis Corporation, priority 2014, dated 2018) one finds IC50 data, which are given here for 40 compounds.

SMILES strings stand for the structures.

The target in this assay is Terminally biotinylated beta-amyloid (Aβ42) (Homo sapiens, UniProt P05067). Kind of assay: Aβ42 biotinylated (biotin-AB) oligomerization assay, NeutrAvidin capture ELISA. It is filed as biochemical. The settings on record: approximate value; 1 hr oligomerization at room temperature; read-out: IC50 Aβ 42-bio. How it is done: Aβ42 Biotinylated Assay Terminally biotinylated beta-amyloid (biotin-AB) was dissolved in HFIP at the concentration of 1 mg/ml and aliquoted to 50 μl/tube in 0.65 ml colored microfuge tubes (Fisher 02-681-248). The aliquots were diluted immediately by adding 450 μl of HFIP to 0.1 mg/ml. Approximately 46 ul (containing approximately 4.6 ug of biotin-AB) were taken from a tube, 100 ul of HFIP added, vortexed, and dried to a thin film under an N2 stream. 100 μl of trifluoroacetic acid (TFA) was added and vortexed. After 10 minute incubation at room temperature in a hood, resulting in disaggregation of seeds, the sample was vortexed again and dried again to a thin film under an N2 stream. 100 μl of HFIP was added, mixed, and the biotin-AB sample was dried for a third time under an N2 stream to remove residual TFA. The treated biotin-AB was dissolved in DMSO to a final peptide concentration of […] (SOX). An ELISA “capture” plate (Costar 9018) was coated with 50 μl of 1 μg/ml NeutrAvidin™ (NA) in 10 mM sodium phosphate buffer, pH 7.5. (NeutrAvidin can be prepared as 1 mg/ml (1000×) in milliQ water/10% glycerol and stored at −80° C. before use.) The plate was sealed plate with adhesive film and stored at 4° C. overnight, then blocked for 2 hours (unsealed) at room temperature with 200 μl/well OFB+0.1% v/v Tween 20. The “capture” plate was allowed to come to room temperature. Several dilutions of test compound were prepared with 100% DMSO, according to the desired concentration to be tested. 2.5 μl of diluted test compound was pipetted into the bottom of each well of a 96-well “dilution” polypropylene plate (Costar 3365), to which was added 250 ul of Oligomer Formation Buffer (OFB: 20 mM sodium phosphate, pH 7.5-150 mM NaCl). To begin oligomerization, 2 μl/well of the biotin-AB was added to the bottom of each well of a 96-well “reaction” polypropylene plate (Costar 3365) and 100 ul of each well of the “dilution” plate was transferred to the “reaction” plate (final concentration of DMSO being up to 1%). The reaction plate was sealed and incubated for 1 hr at room temperature without shaking. The reaction was then stopped by the addition of 50 ul of 0.3% Tween 20 in water. The “capture” plate blocking solution was removed, and 50 ul of each well of the “reaction” plate was transferred to each well of the “capture” plate. The “capture” plate was sealed and incubated for 2 hours at room temperature with shaking at 150 rpm. The “capture” plate was then washed on a plate washer (3×) with 200 ul/well TBST (20 mM Tris-HCL, pH 7.5/150 mM NaCl/0.1% Tween 20). 50 ul of Streptavidin-horseradish […] (1:20,000 dilution) in OFB+0.1% Tween 20 was added to each well, the “capture” plate was sealed and incubated for 1 hr with shaking at 150 rpm. As before, the plate was washed, then 100 ul of TMB/H2O2 substrate solution was added to each well. After 5-10 minutes, 100 ul of 1% v/v sulfuric acid was added and the absorbance of each well was read at 450 nm using a standard plate reader. Data is summarized in the table below; numbers given in parenthesis for the Aβ 40 Thioflavin T assays are the values in that particular experiment for compound ID 1027, given as the first entry in this table for structural comparison. “IC50 Aβ42-bio” column refers to the approximate value of the Aβ42 biotinylated assay IC50 in micromoles/L.
For orientation: An ELISA detects its analyte on a solid surface through an enzyme-linked reagent.

Sequence of Terminally biotinylated beta-amyloid (Aβ42) (P05067 672-713, species assumed): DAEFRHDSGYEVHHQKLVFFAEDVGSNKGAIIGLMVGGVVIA

Regarding `OC(c1cccnc1-c1cc(N2CC(CN3CCOCC3)C2)c2nonc2c1)C(F)(F)F` (stereo not shown) [compound 1563, 2,2,2-trifluoro-1-(2-(7-(3-(morpholinomethyl)azetidin-1-yl)benzo[c][1,2,5]oxadiazol-5-yl)pyridin-3-yl)ethan-1-ol], the IC50 (as a rule, the concentration that inhibits the measured activity by half) is greater than 20 µM.

As to `COCCN1CCCCC1c1cc(N2CC(CN3CCCC3)C2)c2nonc2c1` (stereo not shown) [compound 1556], the IC50 is 6.6 µM.

For the compound `CC(C)(O)c1nc(-c2cc(N3CC(CN4CCOCC4)C3)c3nonc3c2)no1` [compound 1628], the IC50 turned out to be 33.1 µM.

For the compound `CC(C)(O)/C=C/c1cc(N2CC(CN3CCOCC3)C2)c2nonc2c1` [compound 1645, (E)-2-methyl-4-(7-(3-(morpholinomethyl)azetidin-1-yl)benzo[c][1,2,5]oxadiazol-5-yl)but-3-en-2-ol], the IC50 is greater than 20 µM.

Take `CC(=O)N1CCCCC1c1cc(N2CC(CN3CCCC3)C2)c2nonc2c1` (stereo not shown) [compound 1555]: the IC50 amounted to 5 µM.

Regarding `CC(C)(O)C1CC1c1cc(N2CC(CN3CCOCC3)C2)c2nonc2c1` (stereo not shown) [compound 1666, 2-(2-(7-(3-(morpholinomethyl)azetidin-1-yl)benzo[c][1,2,5]oxadiazol-5-yl)cyclopropyl)propan-2-ol], the IC50 is greater than 20 µM.

On to `OCc1nc(-c2cc(N3CC(CN4CCOCC4)C3)c3nonc3c2)cs1` [compound 1566], for which the concentration for half-maximal inhibition (IC50) is greater than 20 µM.

As to `c1csc(-c2cc(N3CC(CN4CCCC4)C3)c3nonc3c2)n1` [compound 1560], the IC50 came to 6.7 µM.

As for `c1ccc(-c2cc(N3CC(CN4CCCC4)C3)c3nonc3c2)nc1` [compound 1580, 6-(Pyridin-2-yl)-4-(3-(pyrrolidin-1-ylmethyl)azetidin-1-yl)benzo[c][1,2,5]oxadiazole], the IC50 was greater than 20 µM.

For `OCc1cnc(-c2cc(N3CC(CN4CCOCC4)C3)c3nonc3c2)s1` [compound 1594], the IC50 is greater than 20 µM.

On to `OC(c1ccc(-c2cc(N3CC(CN4CCOCC4)C3)c3nonc3c2)cn1)C(F)(F)F` (stereo not shown) [compound 1618, 2,2,2-trifluoro-1-(5-(7-(3-(morpholinomethyl)azetidin-1-yl)benzo[c][1,2,5]oxadiazol-5-yl)pyridin-2-yl)ethan-1-ol], for which the IC50 worked out at 4.98 µM.

Consider `OC1(c2cccc(-c3cc(N4CC(CN5CCOCC5)C4)c4nonc4c3)c2)COC1` [compound 1638], for which the IC50 was found to be 3 µM.

As for `CC(=O)N(C1CC1)C(C)c1cc(N2CC(CN3CCCC3)C2)c2nonc2c1` (stereo not shown) [compound 1550], the IC50 turned out to be 5.3 µM.

In the case of `CC(C)(O)c1cccc(-c2cc(N3CC(CN4CCOCC4)C3)c3nonc3c2)c1` [compound 1617], the IC50 was 14.6 µM.

Take `OCc1cc(N2CC(CN3CCOCC3)C2)c2nonc2c1` [compound 1571, (7-(3-(morpholinomethyl)azetidin-1-yl)benzo[c][1,2,5]oxadiazol-5-yl)methanol]: the IC50 was greater than 20 µM.

In the case of `COc1ccc(-c2cc(N3CC(CN4CCOCC4)C3)c3nonc3c2)cn1` [compound 1670, 6-(6-methoxypyridin-3-yl)-4-(3-(morpholinomethyl)azetidin-1-yl) benzo[c][1,2,5]oxadiazole], the IC50 was 11.2 µM.

Take `NC(=O)c1cc(N2CC(CN3CCCC3)C2)c2nonc2c1` [compound 1548]: the IC50 came out at 25.3 µM.

On to `Fc1cc(F)cc(-c2cc(N3CC(CN4CCOCC4)C3)c3nonc3c2)c1` [compound 1588, 6-(3,5-difluorophenyl)-4-(3-(morpholinomethyl)azetidin-1-yl) benzo[c][1,2,5]oxadiazole], for which the IC50 is 30.2 µM.

As for `CS(=O)(=O)N1CCCCC1c1cc(N2CC(CN3CCCC3)C2)c2nonc2c1` (stereo not shown) [compound 1554], the IC50 was determined as 8.3 µM.

Take `OC(c1ccnc(-c2cc(N3CC(CN4CCCC4)C3)c3nonc3c2)c1)C(F)(F)F` (stereo not shown) [compound 1587, 2,2,2-trifluoro-1-(2-(7-(3-(pyrrolidin-1-ylmethyl)azetidin-1-yl)benzo[c][1,2,5]oxadiazol-5-yl)pyridin-4-yl)ethan-1-ol]: the IC50 was 12.3 µM.

In the case of `COc1cc(-c2cc(N3CC(CN4CCOCC4)C3)c3nonc3c2)ccn1` [compound 1659, 6-(2-methoxypyridin-4-yl)-4-(3-(morpholinomethyl)azetidin-1-yl) benzo[c][1,2,5]oxadiazole], the IC50 was 12.4 µM.

In the case of `CSc1cc(N2CC(CN3CCOCC3)C2)c2nonc2c1` [compound 1612, 6-(methylthio)-4-(3-(morpholinomethyl)azetidin-1-yl) benzo[c][1,2,5]oxadiazole], the IC50 is greater than 20 µM.

As to `OCc1nc(-c2cc(N3CC(CN4CCOCC4)C3)c3nonc3c2)no1` [compound 1629], the IC50 turned out to be 15.7 µM.

`Cc1ccc(C)c(-c2cc(N3CC(CN4CCCC4)C3)c3nonc3c2)c1` [compound 1559]: the IC50 was 7.6 µM.

On to `CC(=O)NC1CCN(c2cc(-c3ccc(C4(O)COC4)cc3)cc3nonc23)CC1` [compound 1735], for which the half-maximal inhibitory concentration (IC50) came to 2.4 µM.

As for `COc1ncccc1-c1cc(N2CC(CN3CCOCC3)C2)c2nonc2c1` [compound 1658, 6-(2-methoxypyridin-3-yl)-4-(3-(morpholinomethyl)azetidin-1-yl) benzo[c][1,2,5]oxadiazole], the IC50 was greater than 20 µM.

In the case of `COc1cc(N2CC(CN3CCOCC3)C2)c2nonc2c1` [compound 1611, 6-methoxy-4-(3-(morpholinomethyl)azetidin-1-yl)benzo[c][1,2,5]oxadiazole], the IC50 is greater than 20 µM.

Turning to `CN(C)C(=O)c1ccccc1-c1cc(N2CC(CN3CCOCC3)C2)c2nonc2c1` [compound 1615], the IC50 is greater than 20 µM.

Regarding `OC(c1ncoc1-c1cc(N2CC(CN3CCOCC3)C2)c2nonc2c1)C(F)(F)F` (stereo not shown) [compound 1667], the concentration for half-maximal inhibition (IC50) is 17.5 µM.

In the case of `OC1(c2cc(N3CC(CN4CCOCC4)C3)c3nonc3c2)CC(OCc2ccccc2)C1` (stereo not shown) [compound 1692, 3-(benzyloxy)-1-(7-(3-(morpholinomethyl)azetidin-1-yl)benzo[c][1,2,5]oxadiazol-5-yl) cyclobutan-1-ol], the IC50 came out at 5.6 µM.

As to `COc1cc(N2CC(CN3CCOCC3)C2)c2nonc2c1C` [compound 1613, 5-methoxy-4-methyl-7-(3-(morpholinomethyl)azetidin-1-yl)benzo[c][1,2,5]oxadiazole], the IC50 is greater than 20 µM.

For `Cn1ncc(C(O)C(F)(F)F)c1-c1cc(N2CC(CN3CCOCC3)C2)c2nonc2c1` (stereo not shown) [compound 1651], the IC50 worked out at 30.1 µM.

`OC1(c2ccc(-c3cc(N4CCC(N5CCOCC5)CC4)c4nonc4c3)cc2)COC1` [compound 1717]: the IC50 turned out to be 22.6 µM.

As for `OC1(c2ccc(-c3cc(N4CCC(CN5CCOCC5)CC4)c4nonc4c3)cc2)COC1` [compound 1736], the IC50 worked out at 9.7 µM.

Turning to `OC(c1ccncc1-c1cc(N2CC(CN3CCOCC3)C2)c2nonc2c1)C(F)(F)F` (stereo not shown) [compound 1636, 2,2,2-trifluoro-1-(3-(7-(3-(morpholinomethyl)azetidin-1-yl)benzo[c][1,2,5]oxadiazol-5-yl)pyridin-4-yl) ethan-1-ol], the IC50 was 10.3 µM.

Regarding `OCc1ccc(-c2cc(N3CC(CN4CCOCC4)C3)c3nonc3c2)cc1` [compound 1592], the IC50 amounted to 15.1 µM.

Consider `O=C(c1cc(N2CC(CN3CCCC3)C2)c2nonc2c1)N1CCCCC1` [compound 1552], for which the 50% inhibitory concentration (IC50) came out at 5.7 µM.

In the case of `OC(c1ncc(-c2cc(N3CC(CN4CCOCC4)C3)c3nonc3c2)o1)C(F)(F)F` (stereo not shown) [compound 1677], the 50% inhibitory concentration (IC50) was found to be 26.1 µM.

Take `OC(c1cccnc1-c1cc(N2CC(CN3CCCC3)C2)c2nonc2c1)C(F)(F)F` (stereo not shown) [compound 1564, 2,2,2-trifluoro-1-(2-(7-(3-(pyrrolidin-1-ylmethyl)azetidin-1-yl)benzo[c][1,2,5]oxadiazol-5-yl)pyridin-3-yl) ethan-1-ol]: the IC50 is 6 µM.

Regarding `Cn1ncc(-c2cc(N3CC(CN4CCOCC4)C3)c3nonc3c2)c1C(O)C(F)(F)F` (stereo not shown) [compound 1647], the IC50 turned out to be 14.7 µM.
